Activity calls are given as the source filed them. No cut-off for these calls is given here.
Columns and labels:
[1] = tested on: Jurkat; experiment: Antiproliferative activity against human Jurkat cells assessed as inhibition of cell growth incubated for 48 hrs by CCK-8 assay relative to control; type: functional
[2] = tested on: CT26; experiment: Antiproliferative activity against mouse CT26 cells assessed as inhibition of cell growth incubated for 48 hrs by CCK-8 assay relative to control; type: functional
[3] = tested on: CT26; experiment: Antitumor activity against mouse CT26 cells implanted in BALB/c mouse assessed as tumor growth inhibition at 2.5 mg/kg, iv administered once a week for 21 days relative to control; type: functional; conditions: CT26, 504 h, time 21 day, read-out: TGI
[4] = tested on: B16-F10; experiment: Antiproliferative activity against mouse B16-F10 cells assessed as inhibition of cell growth incubated for 48 hrs by CCK-8 assay relative to control; type: functional
[5] = tested on: CT26; experiment: Antitumor activity against mouse CT26 cells implanted in BALB/c mouse assessed as tumor growth inhibition at 10 mg/kg, ip administered once daily for 21 days relative to control; type: functional; conditions: CT26, 504 h, time 21 day, read-out: TGI
[6] = Toxicity in BALB/c mouse implanted with mouse CT26 cells assessed as weight loss at 2.5 mg/kg, iv administered once a week for 21 days; type: organism-based; conditions: in vivo, 504 h, time 21 day
[7] = tested on: CT26; experiment: Antiproliferative activity against mouse CT26 cells assessed as reduction in cell viability incubated for 48 hrs by CCK-8 assay; type: functional, cell-based; conditions: CT26, 48 h
[8] = tested on: B16-F10; experiment: Antiproliferative activity against mouse B16-F10 cells assessed as reduction in cell viability incubated for 48 hrs by CCK-8 assay; type: functional, cell-based; conditions: B16-F10, 48 h
[9] = tested on: Jurkat; experiment: Antiproliferative activity against human Jurkat cells assessed as reduction in cell viability incubated for 48 hrs by CCK-8 assay; type: functional, cell-based
[10] = biological target: DNA-dependent protein kinase catalytic subunit (Homo sapiens, UniProt P78527); experiment: Inhibition of human full-length DNA-PK using EPPLSQEAFADLWKK as substrate incubated for 60 mins in presence of ATP by ADP-Glo kinase assay
[11] = tested on: CT26; experiment: Synergistic antiproliferative activity against mouse CT26 cells assessed as reduction in cell viability incubated for 48 hrs in presence of doxorubicin by CCK-8 assay; type: functional, cell-based; conditions: CT26, 48 h
[12] = tested on: Jurkat; experiment: Synergistic antiproliferative activity against human Jurkat cells assessed as reduction in cell viability incubated for 48 hrs in presence of doxorubicin by CCK-8 assay; type: functional, cell-based
[13] = tested on: B16-F10; experiment: Synergistic antiproliferative activity against mouse B16-F10 cells assessed as reduction in cell viability incubated for 48 hrs in presence of doxorubicin by CCK-8 assay; type: functional, cell-based; conditions: B16-F10, 48 h
[14] = tested on: B16-F10; experiment: Immunomodulatory activity in mouse B16-F10 cells implanted in C57BL/6 mouse assessed as percentage of CD3 positive CD4 positive cells in tumor at 50 mg/kg, ip administered once daily for 13 days by flow cytometric analysis (reference value: 0.86%); type: functional; conditions: time 13 day
[15] = Toxicity in C57BL/6 mouse implanted with mouse B16-F10 cells assessed as effect on body weight at 50 mg/kg, ip administered once daily for 13 days; type: organism-based; conditions: in vivo, 312 h, time 13 day
[16] = tested on: B16-F10; experiment: Immunomodulatory activity in mouse B16-F10 cells implanted in C57BL/6 mouse assessed as percentage of CD3 positive CD8 positive cells in tumor at 50 mg/kg, ip administered once daily for 13 days by flow cytometric analysis (reference value: 0.99%); type: functional; conditions: time 13 day
[17] = tested on: B16-F10; experiment: Antitumor activity against mouse B16-F10 cells implanted in C57BL/6 mouse assessed as tumor growth inhibition at 50 mg/kg, ip administered once daily for 13 days relative to control; type: functional; conditions: B16-F10, 312 h, time 13 day, read-out: TGI
[18] = tested on: HepG2; experiment: Inhibition of DNA damage repair in human HepG2 cells assessed as reduction in gammaH2AX expression level at 20 uM by Western blot analysis; type: functional, cell-based
[19] = tested on: Cell membrane; experiment: Induction of mitochondrial membrane potential loss in human Jurkat cells at 1 uM incubated for 24 hrs by JC-1 staining based flow cytometric analysis; type: cell membranes
[20] = tested on: Jurkat; experiment: Induction of cell cycle arrest in human Jurkat cells assessed as increase in G2/M phase cells at 1 uM incubated for 24 hrs in presence of doxorubicin by PI staining based flow cytometric analysis; type: functional
[21] = tested on: Cell membrane; experiment: Induction of mitochondrial membrane potential loss in human Jurkat cells at 1 uM incubated for 24 hrs in presence of doxorubicin by JC-1 staining based flow cytometric analysis; type: cell membranes
[22] = tested on: Jurkat; experiment: Induction of cell cycle arrest in human Jurkat cells assessed as decrease in S phase cells at 1 uM incubated for 24 hrs in presence of doxorubicin by PI staining based flow cytometric analysis; type: functional

Sequence of DNA-dependent protein kinase catalytic subunit (P78527 whole entry): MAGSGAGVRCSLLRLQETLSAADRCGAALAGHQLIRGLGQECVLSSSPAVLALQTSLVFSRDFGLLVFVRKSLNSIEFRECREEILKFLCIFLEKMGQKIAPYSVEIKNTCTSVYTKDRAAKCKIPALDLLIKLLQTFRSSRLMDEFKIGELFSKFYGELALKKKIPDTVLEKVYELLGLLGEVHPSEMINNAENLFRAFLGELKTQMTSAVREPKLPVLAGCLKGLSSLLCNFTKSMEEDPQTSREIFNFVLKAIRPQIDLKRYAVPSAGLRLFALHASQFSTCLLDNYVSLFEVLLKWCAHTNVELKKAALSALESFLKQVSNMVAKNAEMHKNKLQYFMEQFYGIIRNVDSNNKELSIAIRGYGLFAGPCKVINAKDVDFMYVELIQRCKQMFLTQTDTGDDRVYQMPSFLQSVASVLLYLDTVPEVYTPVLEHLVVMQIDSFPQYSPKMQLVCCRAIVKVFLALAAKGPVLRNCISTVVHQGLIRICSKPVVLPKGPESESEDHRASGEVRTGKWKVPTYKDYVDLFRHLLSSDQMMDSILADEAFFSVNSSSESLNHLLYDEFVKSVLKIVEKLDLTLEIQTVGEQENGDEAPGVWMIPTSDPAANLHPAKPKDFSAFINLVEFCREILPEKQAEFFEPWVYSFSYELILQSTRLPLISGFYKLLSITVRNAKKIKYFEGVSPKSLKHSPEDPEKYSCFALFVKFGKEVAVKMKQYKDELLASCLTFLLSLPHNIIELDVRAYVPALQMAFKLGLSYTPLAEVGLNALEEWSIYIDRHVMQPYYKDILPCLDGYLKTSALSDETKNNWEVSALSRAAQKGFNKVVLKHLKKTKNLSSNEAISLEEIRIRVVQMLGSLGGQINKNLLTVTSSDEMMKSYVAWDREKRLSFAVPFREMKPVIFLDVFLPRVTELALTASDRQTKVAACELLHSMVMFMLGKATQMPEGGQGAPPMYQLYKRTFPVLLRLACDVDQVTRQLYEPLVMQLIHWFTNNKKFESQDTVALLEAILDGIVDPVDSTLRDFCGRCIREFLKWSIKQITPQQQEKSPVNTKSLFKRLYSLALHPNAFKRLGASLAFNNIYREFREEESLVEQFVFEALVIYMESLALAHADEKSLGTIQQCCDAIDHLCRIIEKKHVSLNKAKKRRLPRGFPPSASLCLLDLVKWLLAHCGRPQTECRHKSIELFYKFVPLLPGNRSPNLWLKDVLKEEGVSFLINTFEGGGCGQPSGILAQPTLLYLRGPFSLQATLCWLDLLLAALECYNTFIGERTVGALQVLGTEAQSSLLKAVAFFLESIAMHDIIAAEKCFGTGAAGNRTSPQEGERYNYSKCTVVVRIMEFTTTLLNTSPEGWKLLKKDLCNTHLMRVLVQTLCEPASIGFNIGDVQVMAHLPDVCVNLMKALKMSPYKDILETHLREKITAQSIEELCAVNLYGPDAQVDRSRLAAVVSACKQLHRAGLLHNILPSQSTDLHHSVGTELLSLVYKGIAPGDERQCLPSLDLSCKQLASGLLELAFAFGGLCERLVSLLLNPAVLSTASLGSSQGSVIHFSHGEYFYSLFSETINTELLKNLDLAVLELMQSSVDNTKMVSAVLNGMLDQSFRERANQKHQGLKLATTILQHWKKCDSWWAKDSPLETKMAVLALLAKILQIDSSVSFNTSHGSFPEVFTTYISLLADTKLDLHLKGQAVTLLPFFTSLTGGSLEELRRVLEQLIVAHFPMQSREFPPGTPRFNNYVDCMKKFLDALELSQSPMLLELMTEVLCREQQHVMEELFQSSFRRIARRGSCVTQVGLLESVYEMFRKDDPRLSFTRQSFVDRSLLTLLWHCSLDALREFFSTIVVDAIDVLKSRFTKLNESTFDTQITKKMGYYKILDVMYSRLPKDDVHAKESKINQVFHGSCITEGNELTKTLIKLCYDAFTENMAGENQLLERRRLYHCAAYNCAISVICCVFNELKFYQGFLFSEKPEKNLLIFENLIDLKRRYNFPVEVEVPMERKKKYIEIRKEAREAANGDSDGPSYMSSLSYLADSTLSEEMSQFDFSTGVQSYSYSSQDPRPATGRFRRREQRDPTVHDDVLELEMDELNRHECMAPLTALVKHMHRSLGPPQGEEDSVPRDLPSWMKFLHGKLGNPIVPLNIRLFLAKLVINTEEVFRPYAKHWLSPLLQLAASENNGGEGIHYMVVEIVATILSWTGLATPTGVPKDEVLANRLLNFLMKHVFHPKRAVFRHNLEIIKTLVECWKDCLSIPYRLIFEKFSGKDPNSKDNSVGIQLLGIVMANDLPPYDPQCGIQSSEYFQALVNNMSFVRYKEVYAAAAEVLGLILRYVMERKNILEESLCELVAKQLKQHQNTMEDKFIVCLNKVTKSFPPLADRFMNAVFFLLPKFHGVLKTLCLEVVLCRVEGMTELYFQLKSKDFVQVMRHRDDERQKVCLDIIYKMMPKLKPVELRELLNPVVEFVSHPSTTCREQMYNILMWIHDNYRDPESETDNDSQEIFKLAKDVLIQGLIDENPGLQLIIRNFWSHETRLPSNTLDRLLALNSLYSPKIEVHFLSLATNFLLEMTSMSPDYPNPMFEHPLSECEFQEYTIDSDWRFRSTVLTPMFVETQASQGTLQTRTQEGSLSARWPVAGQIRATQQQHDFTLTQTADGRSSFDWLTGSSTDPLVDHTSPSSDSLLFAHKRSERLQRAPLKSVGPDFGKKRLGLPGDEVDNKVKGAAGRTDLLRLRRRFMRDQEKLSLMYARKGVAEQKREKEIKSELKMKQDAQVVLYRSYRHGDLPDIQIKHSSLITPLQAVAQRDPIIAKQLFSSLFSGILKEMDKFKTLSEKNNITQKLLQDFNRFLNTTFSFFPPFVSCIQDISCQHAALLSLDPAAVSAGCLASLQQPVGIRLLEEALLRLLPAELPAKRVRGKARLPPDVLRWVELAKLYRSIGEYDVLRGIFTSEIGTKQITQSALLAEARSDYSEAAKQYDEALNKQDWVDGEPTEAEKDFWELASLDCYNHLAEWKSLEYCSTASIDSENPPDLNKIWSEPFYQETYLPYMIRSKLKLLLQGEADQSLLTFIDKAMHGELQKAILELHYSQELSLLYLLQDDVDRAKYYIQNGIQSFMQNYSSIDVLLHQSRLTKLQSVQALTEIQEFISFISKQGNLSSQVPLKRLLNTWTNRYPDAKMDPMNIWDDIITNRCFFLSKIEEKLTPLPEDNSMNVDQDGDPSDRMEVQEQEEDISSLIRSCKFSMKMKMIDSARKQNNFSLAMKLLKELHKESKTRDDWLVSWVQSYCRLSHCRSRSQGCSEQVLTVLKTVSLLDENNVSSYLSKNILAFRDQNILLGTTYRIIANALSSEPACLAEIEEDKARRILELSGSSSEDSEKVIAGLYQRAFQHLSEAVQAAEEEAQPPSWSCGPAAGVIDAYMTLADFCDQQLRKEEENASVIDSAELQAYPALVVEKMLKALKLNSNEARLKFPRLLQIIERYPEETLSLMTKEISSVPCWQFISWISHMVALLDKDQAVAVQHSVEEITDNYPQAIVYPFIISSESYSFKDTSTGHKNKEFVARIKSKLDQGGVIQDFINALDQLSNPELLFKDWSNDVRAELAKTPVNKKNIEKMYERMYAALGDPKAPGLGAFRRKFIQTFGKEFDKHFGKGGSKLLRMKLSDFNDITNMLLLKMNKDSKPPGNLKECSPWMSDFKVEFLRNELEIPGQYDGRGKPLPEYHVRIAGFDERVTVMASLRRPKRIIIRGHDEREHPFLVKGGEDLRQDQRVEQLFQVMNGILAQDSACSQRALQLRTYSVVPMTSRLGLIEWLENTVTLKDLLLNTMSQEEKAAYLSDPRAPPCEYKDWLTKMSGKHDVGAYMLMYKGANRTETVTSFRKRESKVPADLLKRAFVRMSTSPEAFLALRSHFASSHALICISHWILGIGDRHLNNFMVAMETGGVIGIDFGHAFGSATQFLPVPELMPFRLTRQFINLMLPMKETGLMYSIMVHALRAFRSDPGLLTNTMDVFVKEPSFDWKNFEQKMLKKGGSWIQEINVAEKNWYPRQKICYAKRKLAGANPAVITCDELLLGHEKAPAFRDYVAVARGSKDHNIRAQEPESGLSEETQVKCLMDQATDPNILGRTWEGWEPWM

Structure (SMILES) | IC50 [7] [µM] | IC50 [8] [µM] | IC50 [9] [µM] | IC50 [10] [µM] | IC50 [11] [µM] | IC50 [12] [µM] | IC50 [13] [µM] | also measured
COc1cccc2c1C(=O)c1c(O)c3c(c(O)c1C2=O)C[C@@](O)(C(=O)CO)C[C@@H]3O[C@H]1C[C@H](N)[C@H](O)[C@H](C)O1 [DOXORUBICIN] |  |  |  |  |  |  |  | inhibition (INH) [1]: 23%; inhibition (INH) [2]: 9.75%; inhibition in vivo at 2.5 mg/kg [3]: 25.9%; inhibition (INH) [4]: 6.2%; inhibition in vivo at 10 mg/kg [5]: 30.8%; Activity [6]: Non-Toxic
Cc1cnc(-c2cnn(C)c2)cc1Nc1ncc2c(n1)N(C1CCOCC1)Cc1nccn1-2 | > 50 | > 50 | 15 | 0.0294 |  |  |  | 
Cc1cnc(-c2cnn(C)c2)cc1Nc1ncc2c(n1)N(C1CCOCC1)Cc1nncn1-2 | > 50 | > 50 | > 50 | 0.0261 |  |  |  | 
c1cn2c(n1)CN(C1CCOCC1)c1nc(Nc3ccc4nccnc4c3)ncc1-2 | 27.6 | 31.9 | 0.8 | 0.0628 | 14.9 | 0.21 | 20.9 | 
c1cnc2cc(Nc3ncc4c(n3)N(C3CCOCC3)Cc3nncn3-4)ccc2n1 | 45.9 | > 50 | 4.1 | 0.0715 |  |  |  | 
COc1ccc(Nc2ncc3c(n2)N(C2CCOCC2)Cc2nccn2-3)c(C)c1 | 31.2 | 41.8 | 1.4 | 0.0089 | 15.3 | 0.51 | 21.9 | 
Cc1cc2cccnc2cc1Nc1ncc2c(n1)N(C1CCOCC1)Cc1nccn1-2 | 8.9 | 19.5 | 0.7 | 0.00035 | 3.1 | 0.04 | 7.5 | 
Cc1nnc2n1-c1cnc(Nc3ccc4nccnc4c3)nc1N(C1CCOCC1)C2 | 19.4 | 26.9 | 0.9 | 0.0518 | 9.7 | 0.17 | 26.9 | 
Cc1c(COc2cc(OCc3cccc(C#N)c3)c(CN3CCCCC3C(=O)NCCNC(=O)CCCC[C@@H]3SC[C@@H]4NC(=O)N[C@@H]43)cc2Cl)cccc1-c1ccccc1 (stereo partly specified) |  |  |  |  |  |  |  | Activity [14]: 3.23%; Activity [15]: Non-Toxic; Activity [16]: 3.53%; inhibition in vivo at 50 mg/kg [17]: 48.2%
Cc1cc2ncnn2cc1Nc1ncc2c(n1)n(C1CCOCC1)c(=O)n2C [AZD-7648] | 18.8 | 33.6 | 12.3 |  | 6.74 | 0.09 | 11.4 | Activity [20]: Active; Activity [21]: Active; inhibition [18]: Active; Activity [22]: Active; Activity [19]: inactive

The next lines start with results.

IC50 [7] [µM] | IC50 [8] [µM] | IC50 [9] [µM] | IC50 [10] [µM] | IC50 [11] [µM] | IC50 [12] [µM] | IC50 [13] [µM] | Structure (SMILES) | also measured
5.2 | 12.9 | 0.8 | 0.00062 | 1.5 | 0.05 | 6.5 | Cc1cc2cccnc2cc1Nc1ncc2c(n1)N(C1CCOCC1)Cc1nnc(C)n1-2 | 
> 50 | > 50 | > 50 | 0.0153 |  |  |  | COc1ccc(Nc2ncc3c(n2)N(C2CCOCC2)Cc2nnc(C)n2-3)c(C)c1 | 
> 50 | > 50 | 5.7 | 0.0214 |  |  |  | Cc1cnc(-c2cnn(C)c2)cc1Nc1ncc2c(n1)N(C1CCOCC1)Cc1nnc(C)n1-2 | 
> 50 | > 50 | 9.4 | 0.0036 |  |  |  | Cc1cc2ncnn2cc1Nc1ncc2c(n1)N(C1CCOCC1)Cc1nccn1-2 | 
> 50 | > 50 | > 50 | 0.0056 |  |  |  | Cc1cc2ncnn2cc1Nc1ncc2c(n1)N(C1CCOCC1)Cc1nncn1-2 | 
> 50 | > 50 | 25.2 | 0.0084 |  |  |  | Cc1cc2ncnn2cc1Nc1ncc2c(n1)N(C1CCOCC1)Cc1nnc(C)n1-2 | 
32.9 | 46.8 | 11.4 |  | 9.35 | 0.11 | 20.6 | Cc1cc2ncnn2cc1Nc1ncc2c(n1)N(C1CCOCC1)CC(=O)N2C | inhibition [18]: Active; Activity [19]: inactive
